Test results reported in patent publication US5428019A, “Bombesin analogs” (Merrell Dow Pharmaceuticals Inc., priority 1994, dated 1995).
Read-outs that look alike come from different tables or passages of the source. Where a SMILES comes first, the peptide text is derived from it. [ ]: non-standard residue; d: D form. The star is where a group is joined. X1 = CC(C)C[C@@H](C(N)=O)N(C)C[C@H](Cc1ccccc1)N*; X2 = CC(C)C[C@@H](CN[C@@H](CC(C)C)C(N)=O)N*; Palmitoyl = CCCCCCCCCCCCCCCC(=O)*; pGlu = O=C1CC[C@@H](C(=O)O)N1; Lauroyl = CCCCCCCCCCCC(=O)*; Octanoyl = CCCCCCCC(=O)*

Legend:
Bombesin Receptor = molecular target: T1, Bombesin Receptor (Mus musculus, UniProt P21729); assay: Phosphatidylinositol turnover in chopped mouse pancreas; type: cell-based; parameters: key to PI Turnover Agonist: (+) represents agonist activity; (-) indicates no agonist activity; details: for PI Turnover % Inhibition: antagonist activity, referenced to the stimulation produced by 100 nM GRP
T1 construct: Pancreata from mice were chopped at 350 μm with a tissue chopper and pooled; from tissue; host or cells: chopped mouse pancreas
Description: Pancreata from mice were chopped at 350 μm with a tissue chopper and pooled. The chopped tissue was washed twice with oxygenated Krebs-Hepes, then incubated for 30 minutes in 37° C. oxygenated Krebs-Hepes buffer with fresh buffer after 15 minutes. The tissue was then incubated in this buffer containing 200 μCi of [^3 H] inositol at 37° C. for 1 hour. The tissue was then washed twice and incubated for another 30 minutes in oxygenated Krebs-Hepes (containing 10 mM Li^+) at 37° C. with a fresh buffer change after 15 minutes. Portions of the tissue mass (approximately 10 mg per assay tube) were then placed in Li^+ buffer with protease inhibitors, (40 μg/ml bacitracin, 4 μg/ml leupeptin, 4 μg/ml chymostatin, 8 μg/ml thiorphan), 0.1% BSA, and 0.1-10 μM peptide in a final volume of 250 μl. After 60 minutes at room temperature, the phosphatidylinositol turnover was terminated by the addition of 940 μl chloroform:methanol (1:2), followed by 310 μl chloroform, followed by 310 μl water. Each tube was then vortexed for 5 seconds and then centrifuged at 2500 x g for 10 minutes to separate the phases. 50 μl of the bottom phase (chloroform) was withdrawn from each tube and placed in a counting vial, dried, and counted in scintillation fluid. 900 μl of the top (aqueous) phase were then mixed with 2.1 ml water and loaded onto a 0.5 ml Biorad AG-1X8 (formate) ion exchange column. The material on the columns was washed in order with: 1) 10 ml of water 2) 5 ml of 5 mM disodium tetraborate/60 mM sodium formate 3) 10 ml of 1 M ammonium formate in 0.1 M formic acid. The final (third) wash was collected and one ml was mixed with 14 ml of Bio-Safe scintillant and counted. The ratio of these counts (total inositol phosphates) to the corresponding organic phase counts (inositol incorporated into the tissue) was then calculated for each sample. The ratios in the presence of test compound and/or standards were then compared to the ratios for control tubes (i.e., no stimulating agonist). The abilities of test compounds to stimulate phosphatidyl-inositol turnover were determined with the aid of a computer program. […] The ordinate (y-axis) indicates the observed PI turnover as a percentage of control. Values are mean±standard error of triplicate determinations.

bombesin/GRP receptor = molecular target: T2, bombesin/GRP receptor (Mus musculus, UniProt P21729); assay: Competition for 125I-GRP binding to murine pancreatic membranes
T2 construct: The pancreata from one or more mice were pooled and homogenized; from tissue; host or cells: mouse pancreas membranes
Description: The pancreata from one or more mice were pooled and homogenized in 50 mM HEPES (pH 7.4) containing 120 mM NaCl, 5 mM KCl, 1 mM EDTA and protease inhibitors (1 μg/ml aprotinin, leupeptin, pepstatin; 4 μg/ml bacitracin, antipain, bestatin; 100 μM PMSF) at 4° C. and centrifuged at 37,500 X g for 15 minutes. The pellet was resuspended in 50 mM HEPES (pH 7.4) containing 10 mM EDTA, 300 mM KCl, and protease inhibitors, and then incubated for 30 minutes at 4° C. The suspension was centrifuged as above and the pellet was washed two times in 50 mM HEPES (pH 7.4) containing 8 μg/ml thiorphan and protease inhibitors, and again centrifuged. The tissue was then resuspended in incubation buffer (1 ml per 4 mg pancreas) and incubated for 15 minutes at room temperature, then 250 μl were added to each assay tube to commence the assay. […] The assay was allowed to proceed to equilibrium for 90 minutes at room temperature. After this time, the contents of each tube was rapidly filtered over Whatman GF/B filters presoaked in 0.1% polyethyleneimine and the filters were rapidly washed three times with ice-cold 50 mM HEPES (pH 7.4). Filter-bound radioactivity was quantitated in a gamma counter. […] Affinity and maximal binding were calculated with LIGAND (Biosoft, Cambridge, UK) (FIGS. 1 and FIG. 2)
The abscissa (x-axis) logarithmically indicates the concentration of agonists being tested.

[1] = competitive binding, mouse pancreas, averages of multiple experiments, read-out: Kd

T2 sequence (P21729 whole entry): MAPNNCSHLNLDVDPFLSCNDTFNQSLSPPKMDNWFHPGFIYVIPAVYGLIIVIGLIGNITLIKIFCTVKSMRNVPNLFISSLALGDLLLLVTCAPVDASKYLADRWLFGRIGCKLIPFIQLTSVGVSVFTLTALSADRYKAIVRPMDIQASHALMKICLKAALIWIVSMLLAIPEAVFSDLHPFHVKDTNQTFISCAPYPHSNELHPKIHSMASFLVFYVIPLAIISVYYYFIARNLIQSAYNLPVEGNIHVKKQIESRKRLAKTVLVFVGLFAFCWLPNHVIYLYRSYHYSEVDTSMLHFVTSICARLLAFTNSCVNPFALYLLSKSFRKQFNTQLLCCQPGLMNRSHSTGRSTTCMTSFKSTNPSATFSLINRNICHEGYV
T1 sequence (P21729 whole entry): as above

PI Turnover Agonist (Bombesin Receptor)	PI Turnover % Inhibition (Bombesin Receptor) [%]	Kd (bombesin/GRP receptor; [1]) [nM]	SMILES	also measured
-	24		CC(=O)N[C@@H](CCC(N)=O)C(=O)N[C@@H](Cc1c[nH]c2ccccc12)C(=O)N[C@@H](C)C(=O)N[C@H](C(=O)N[C@H](C)C(=O)N[C@@H](Cc1c[nH]cn1)C(=O)N[C@@H](CC(C)C)C(N)=O)C(C)C [Acetyl[D-Ala^11]bombesin(7-13)amide, Nα-acetyl-Gln--Trp--Ala--Val-D-Ala--His--Leu--NH2] (Ac-QWAV[dA]HL-NH2)	
	42		CC(C)C[C@H](SC[C@H](Cc1ccccc1)NC(=O)[C@H](Cc1c[nH]cn1)NC(=O)CNC(=O)[C@@H](NC(=O)[C@H](C)NC(=O)[C@H](Cc1c[nH]c2ccccc12)NC(=O)[C@H](CCC(N)=O)NC(=O)[C@@H]1CCC(=O)N1)C(C)C)C(N)=O [[Phe^8 .psi.[CH2 S]Leu^9]litorin, pGlu--Gln--Trp--Ala--Val--Gly--His--Phe.psi.[CH2 S]Leu--NH2]	
	53		CC(C)C[C@@H](C(N)=O)[S+]([O-])C[C@H](Cc1ccccc1)NC(=O)[C@H](Cc1c[nH]cn1)NC(=O)CNC(=O)[C@@H](NC(=O)[C@H](C)NC(=O)[C@H](Cc1c[nH]c2ccccc12)NC(=O)[C@H](CCC(N)=O)NC(=O)[C@@H]1CCC(=O)N1)C(C)C (single isomer, unassigned) [[Phe^8 .psi.[CH2 S(O)]Leu^9 ]litorin I] [pGlu--Gln--Trp--Ala--Val--Gly--His--Phe.psi.[CH2 S(O)]Leu--NH2]	
	30		CC(C)C[C@@H](CN[C@@H](CC(C)C)C(N)=O)NC(=O)[C@H](Cc1c[nH]cn1)NC(=O)CNC(=O)[C@@H](NC(=O)[C@H](C)NC(=O)[C@H](Cc1c[nH]c2ccccc12)NC(=O)[C@H](CCC(N)=O)NC(=O)[C@H](CC(N)=O)NC(=O)CNC(=O)[C@H](CC(C)C)NC(=O)[C@H](CCCNC(=N)N)NC(=O)[C@H](CCC(N)=O)NC(=O)[C@@H]1CCC(=O)N1)C(C)C [[Leu^13 .psi.{CH2 NH]Leu^14]bombesin, pGlu--Gln--Arg--Leu--Gly--Asn--Gln--Trp--Ala--Val--Gly--His--Leu.psi.[CH2 N]Leu--NH2, reference compound] ([pGlu]QRLGNQWAVGH-X2)	
-			CCCCCCCC(=O)N[C@@H](CCC(N)=O)C(=O)N[C@@H](Cc1c[nH]c2ccccc12)C(=O)N[C@@H](C)C(=O)N[C@H](C(=O)N[C@H](C)C(=O)N[C@@H](Cc1c[nH]cn1)C(=O)N[C@@H](CC(C)C)C(N)=O)C(C)C [Octanoyl[D-Ala^11]bombesin(7-13)amide, Nα-octyl-Gln--Trp--Ala--Val-D-Ala--His--Leu--NH2] (Octanoyl-QWAV[dA]HL-NH2; N-terminus and C-terminus assumed)	
	83		CC(C)C[C@@H](C(N)=O)[S+]([O-])C[C@H](Cc1ccccc1)NC(=O)[C@H](Cc1c[nH]cn1)NC(=O)CNC(=O)[C@@H](NC(=O)[C@H](C)NC(=O)[C@H](Cc1c[nH]c2ccccc12)NC(=O)[C@H](CCC(N)=O)NC(=O)[C@@H]1CCC(=O)N1)C(C)C (single isomer, unassigned) [[Phe^8 .psi.[CH2 S(O)]Leu^9 ]litorin II] [pGlu--Gln--Trp--Ala--Val--Gly--His--Phe.psi.[CH2 S(O)]Leu--NH2]	
		1.8	CC(C)C[C@@H](C(N)=O)[S+]([O-])C[C@H](Cc1ccccc1)NC(=O)[C@H](Cc1c[nH]cn1)NC(=O)CNC(=O)[C@@H](NC(=O)[C@H](C)NC(=O)[C@H](Cc1c[nH]c2ccccc12)NC(=O)[C@H](CCC(N)=O)NC(=O)[C@@H]1CCC(=O)N1)C(C)C (single isomer, unassigned) [[Phe^8 .psi.[CH2 S(O)]Leu^9]litorin I, pGlu--Gln--Trp--Ala--Val--Gly--His--Phe.psi.[CH2 S(O)]Leu--NH2]	
+	-16		CC(C)C[C@@H](C(N)=O)N(C)C[C@H](Cc1ccccc1)NC(=O)[C@H](Cc1c[nH]cn1)NC(=O)CNC(=O)[C@@H](NC(=O)[C@H](C)NC(=O)[C@H](Cc1c[nH]c2ccccc12)NC(=O)[C@H](CCC(N)=O)NC(=O)[C@@H]1CCC(=O)N1)C(C)C [[Phe^8 .psi.[CH2 N(CH3)]Leu^9]litorin] ([pGlu]QWAVGH-X1)	PI turnover as a percentage of control (FIG. 3) (Bombesin Receptor; triplicate determinations): statistically significant (P<0.005) increase in PI turnover; Kd (bombesin/GRP receptor; duplicate, 20 pM 125I-GRP, two-site fit, read-out: Kd, high affinity class of sites (FIG. 2)): 0.08 nM; Kd (bombesin/GRP receptor; duplicate, 20 pM 125I-GRP, two-site fit, read-out: Kd, low affinity class of sites (FIG. 2)): 16 nM; Kd (bombesin/GRP receptor; first of two values in the cell, mouse pancreas, averages of multiple experiments, read-out: Kd (nM), high affinity class of sites): 0.019 nM; Kd (bombesin/GRP receptor; second of two values in the cell, mouse pancreas, averages of multiple experiments, read-out: Kd (nM), low affinity class of sites): 23 nM; receptors in the high affinity state (FIG. 2) (bombesin/GRP receptor; two-site fit, 20 pM 125I-GRP): 20%
	53		CCCCCCCCCCCC(=O)N[C@@H](CCC(N)=O)C(=O)N[C@@H](Cc1c[nH]c2ccccc12)C(=O)N[C@@H](C)C(=O)N[C@H](C(=O)N[C@H](C)C(=O)N[C@@H](Cc1c[nH]cn1)C(=O)N[C@@H](CC(C)C)C(N)=O)C(C)C [Lauryl[D-Ala^11]bombesin(7-13)amide, Nα-lauryl-Gln--Trp--Ala--Val-D-Ala--His--Leu--NH2] (Lauroyl-QWAV[dA]HL-NH2)	
	45		CCCCCCCCCCCCCCCC(=O)N[C@@H](CCC(N)=O)C(=O)N[C@@H](Cc1c[nH]c2ccccc12)C(=O)N[C@@H](C)C(=O)N[C@H](C(=O)N[C@H](C)C(=O)N[C@@H](Cc1c[nH]cn1)C(=O)N[C@@H](CC(C)C)C(N)=O)C(C)C [Palmityl[D-Ala^11]bombesin(7-13)amide, Nα-palmityl-Gln--Trp--Ala--Val-D-Ala--His--Leu--NH2] (Palmitoyl-QWAV[dA]HL-NH2)	
		8	CC(C)C[C@@H](CN[C@@H](CC(C)C)C(N)=O)NC(=O)[C@H](Cc1cnc[nH]1)NC(=O)CNC(=O)[C@@H](NC(=O)[C@H](C)NC(=O)[C@H](Cc1c[nH]c2ccccc12)NC(=O)[C@H](CCC(N)=O)NC(=O)[C@H](CC(N)=O)NC(=O)CNC(=O)[C@H](CC(C)C)NC(=O)[C@H](CCCN=C(N)N)NC(=O)[C@H](CCC(N)=O)NC(=O)[C@@H]1CCC(=O)N1)C(C)C [[Leu^13 .psi.{CH2 NH]Leu^14]bombesin, pGlu--Gln--Arg--Leu--Gly--Asn--Gln--Trp--Ala--Val--Gly--His--Leu.psi.[CH2 N]Leu--NH2, reference compound] ([pGlu]QRLGNQWAVGH-X2)	
		1	CC(C)C[C@@H](C(N)=O)[S+]([O-])C[C@H](Cc1ccccc1)NC(=O)[C@H](Cc1c[nH]cn1)NC(=O)CNC(=O)[C@@H](NC(=O)[C@H](C)NC(=O)[C@H](Cc1c[nH]c2ccccc12)NC(=O)[C@H](CCC(N)=O)NC(=O)[C@@H]1CCC(=O)N1)C(C)C (single isomer, unassigned) [[Phe^8 .psi.[CH2 S(O)]Leu^9]litorin II, pGlu--Gln--Trp--Ala--Val--Gly--His--Phe.psi.[CH2 S(O)]Leu--NH2]	

SMILES	PI Turnover Agonist (Bombesin Receptor)	PI Turnover % Inhibition (Bombesin Receptor) [%]	Kd (bombesin/GRP receptor; [1]) [nM]	also measured
CSCC[C@H](NC(=O)[C@H](Cc1ccccc1)NC(=O)[C@H](Cc1c[nH]cn1)NC(=O)CNC(=O)[C@@H](NC(=O)[C@H](C)NC(=O)[C@H](Cc1c[nH]c2ccccc12)NC(=O)[C@H](CCC(N)=O)NC(=O)[C@@H]1CCC(=O)N1)C(C)C)C(N)=O [Litorin, pGlu--Gin--Trp--Ala--Val--Gly--His--Phe--Met--NH2, reference compound]	+		0.075	Kd (bombesin/GRP receptor; triplicate, in the presence of 40 pM 125I-GRP, LIGAND fit, read-out: Kd, single class of sites (FIG. 2)): 0.1 nM
